Active and inactive are the calls of the source. The rule behind the calls is not given here.
Columns and labels:
[1] = Cmax in BALB/c mouse at 2 mg/kg, iv; type: ADME, organism-based; set-up: dose 2 mg/kg, route intravenous; details: in vivo
[2] = Half life in BALB/c mouse at 2 mg/kg, iv; type: ADME, organism-based; set-up: dose 2 mg/kg, route intravenous; details: in vivo
[3] = test system: MOLM-13; assay: Cytotoxicity against human MOLM13 cells assessed as cell viability after 48 hrs by MTT assay; type: functional, cell-based; details: MOLM-13, 48 h
[4] = test system: MOLM-13; assay: Antitumor activity against human MOLM13 cells xenografted in BALB/cAnN.Cg-Foxnlnu/CrlNarl mouse assessed as reduction in tumor mass at 10 mg/kg, ip once daily for 16 days; type: functional; details: MOLM-13, ip, 384 h, route intraperitoneal
[5] = Toxicity in BALB/c AnN.Cg-Foxnlnu/CrlNarl mouse xenografted with human MOLM13 cells at 10 mg/kg, ip administered qd for 16 days; type: organism-based, MOLM-13; set-up: dose 10 mg/kg, route intraperitoneal; details: in vivo
[6] = Therapeutic index, ratio of LD50 for BALB/c AnN.Cg-Foxnlnu/CrlNarl mouse to ED50 for antitumor activity against human MOLM13 cells xenografted in BALB/c AnN.Cg-Foxnlnu/CrlNarl mouse; type: cell-based, MOLM-13; details: in vivo, read-out: Ratio LD50/ED50
[7] = test system: MV4-11; assay: Cytotoxicity against human MV4-11 cells assessed as cell viability after 48 hrs by MTT assay; type: functional, cell-based; details: Homo sapiens, MV4-11, 48 h
[8] = biological target: Voltage-gated inwardly rectifying potassium channel KCNH2 (Homo sapiens, UniProt Q12809); assay: Inhibition of human ERG channel after 3 hrs by fluorescence assay
[9] = biological target: Cytochrome P450 1A2 (Homo sapiens) (UniProt P05177); assay: Inhibition of CYP1A2 (unknown origin) using 3-cyano-7-ethoxycoumarin substrate
[10] = AUC (0 to 24 hrs) in BALB/c mouse at 10 mg/kg, po; type: ADME, organism-based; set-up: time < 24 hr, dose 10 mg/kg, route oral; details: plasma
[11] = Volume of distribution at steady state in BALB/c mouse at 2 mg/kg, iv; type: ADME, organism-based; set-up: dose 2 mg/kg, route intravenous; details: in vivo, read-out: Vdss
[12] = Permeability coefficient of the compound at pH 7.4 by PAMPA-GIT assay; type: ADME; details: read-out: Peff
[13] = test system: Vero; assay: Cytotoxicity against african green monkey Vero cells at 10 uM after 48 hrs by MTT assay; type: cell-based; details: chlorocebus sabaeus
[14] = biological target: Cytochrome P450 2D6 (Homo sapiens, UniProt P10635); assay: Inhibition of CYP2D6 (unknown origin) using 3-cyano-7-ethoxycoumarin substrate; type: ADME
[15] = Tmax in BALB/c mouse at 10 mg/kg, po; type: ADME, organism-based; set-up: dose 10 mg/kg, route oral; details: in vivo
[16] = test system: MOLM-13; assay: Antitumor activity against human MOLM13 cells xenografted in BALB/c AnN.Cg-Foxnlnu/CrlNarl mouse assessed as reduction in tumor growth at 10 mg/kg, ip once daily for 16 days; type: functional; details: MOLM-13, ip, 384 h, route intraperitoneal
[17] = biological target: T1, Tyrosine-protein kinase Lck (Homo sapiens, UniProt P06239); assay: Inhibition of Lck (unknown origin)
[18] = AUC (0 to 24 hrs) in BALB/c mouse at 2 mg/kg, iv; type: ADME, organism-based; set-up: time < 24 hr, dose 2 mg/kg, route intravenous; details: plasma
[19] = Ratio of solubility in PBS to solubility in DMSO; type: physicochemical
[20] = biological target: Cytochrome P450 2C9 (Homo sapiens, UniProt P11712); assay: Inhibition of CYP2C9 (unknown origin) using Vivid OOMR substrate; type: ADME
[21] = Cytotoxicity against human HL60 cells assessed as cell viability after 48 hrs by MTT assay; type: functional, cell-based; details: HL-60, 48 h
[22] = Cmax in BALB/c mouse at 10 mg/kg, po; type: ADME, organism-based; set-up: dose 10 mg/kg, route oral; details: in vivo
[23] = Tmax in BALB/c mouse at 2 mg/kg, iv; type: ADME, organism-based; set-up: dose 2 mg/kg, route intravenous; details: in vivo
[24] = Clearance in BALB/c mouse at 2 mg/kg, iv; type: ADME, organism-based; set-up: dose 2 mg/kg, route intravenous; details: in vivo
[25] = biological target: Cytochrome P450 3A4 (Homo sapiens, UniProt P08684); assay: Inhibition of CYP3A4 (unknown origin) using Vivid OOMR substrate; type: ADME
[26] = Half life in BALB/c mouse at 10 mg/kg, po; type: ADME, organism-based; set-up: dose 10 mg/kg, route oral; details: in vivo
[27] = biological target: Cytochrome P450 2C19 (Homo sapiens, UniProt P33261); assay: Inhibition of CYP2C19 (unknown origin) using 3-cyano-7-ethoxycoumarin substrate; type: ADME
[28] = Oral bioavailability in BALB/c mouse at 10 mg/kg; type: ADME, organism-based; details: in vivo
[29] = test system: THP-1; assay: Cytotoxicity against human THP1 cells assessed as cell viability after 48 hrs by MTT assay; type: functional, cell-based; details: Homo sapiens, THP-1, 48 h
[30] = biological target: Mast/stem cell growth factor receptor Kit (Homo sapiens, UniProt P10721); assay: Inhibition of c-Kit (unknown origin)
[31] = test system: Mus musculus; assay: Toxicity in BALB/c AnN.Cg-Foxnlnu/CrlNarl mouse xenografted with human MOLM13 cells assessed as body weight loss at 10 mg/kg, ip administered qd for 16 days; type: organism-based, MOLM-13; set-up: dose 10 mg/kg, route intraperitoneal; details: in vivo, 384 h
[32] = biological target: Epidermal growth factor receptor (Homo sapiens) (UniProt P00533); assay: Inhibition of EGFR (unknown origin) at 1 uM
[33] = biological target: Rho-associated protein kinase 1 (Homo sapiens) (UniProt Q13464); assay: Inhibition of ROCK1 (unknown origin) at 1 uM
[34] = biological target: Mitogen-activated protein kinase 9 (Homo sapiens) (UniProt P45984); assay: Inhibition of JNK2 (unknown origin) at 1 uM
[35] = biological target: Serine/threonine-protein kinase mTOR (Homo sapiens) (UniProt P42345); assay: Inhibition of mTOR/FRAP1 (unknown origin) at 1 uM
[36] = biological target: Receptor-type tyrosine-protein kinase FLT3 (Homo sapiens) (UniProt P36888); assay: Inhibition of Aurora B/FLT3 in human MOLM13 cells assessed as inhibition of STAT5 phosphorylation after 4 hrs by Dot-blot analysis; type: cell-based; details: MOLM-13
[37] = biological target: Insulin-like growth factor 1 receptor (Homo sapiens) (UniProt P08069); assay: Inhibition of IGF1R (unknown origin) at 1 uM
[38] = biological target: Serine/threonine-protein kinase PLK1 (Homo sapiens) (UniProt P53350); assay: Inhibition of Plk1 (unknown origin) at 1 uM
[39] = test system: MOLM-13; assay: Induction of apoptosis in human MOLM13 cells assessed as increase in FasL level up to 20 uM; type: functional, cell-based
[40] = biological target: Hepatocyte growth factor receptor (Homo sapiens) (UniProt P08581); assay: Inhibition of c-Met (unknown origin) at 1 uM
[41] = biological target: Platelet-derived growth factor receptor alpha (Homo sapiens) (UniProt P16234); assay: Inhibition of PDGFRalpha (unknown origin) at 1 uM
[42] = biological target: Fibroblast growth factor receptor 1 (Homo sapiens) (UniProt P11362); assay: Inhibition of FGFR1 (unknown origin) at 1 uM
[43] = biological target: T1, Tyrosine-protein kinase Lck; details: 1 uM
Description: Inhibition of Lck (unknown origin) at 1 uM

[44] = test system: MOLM-13; assay: Induction of apoptosis in human MOLM13 cells assessed as caspase 3 activation after 24 hrs; type: functional, cell-based
[45] = biological target: Serine/threonine-protein kinase B-raf (Homo sapiens) (UniProt P15056); assay: Inhibition of BRAF (unknown origin) at 1 uM
[46] = biological target: Tyrosine-protein kinase Lyn (Homo sapiens) (UniProt P07948); assay: Inhibition of Lyn (unknown origin) at 1 uM
[47] = biological target: Angiopoietin-1 receptor (Homo sapiens) (UniProt Q02763); assay: Inhibition of TEK/Tie-2 (unknown origin) at 1 uM
[48] = biological target: Aurora kinase C (Homo sapiens) (UniProt Q9UQB9); assay: Inhibition of Aurora C (unknown origin) at 1 uM
[49] = biological target: Dual specificity mitogen-activated protein kinase kinase 1 (Homo sapiens) (UniProt Q02750); assay: Inhibition of MEK1/MAP2K1 (unknown origin) at 1 uM
[50] = biological target: Receptor tyrosine-protein kinase erbB-2 (Homo sapiens) (UniProt P04626); assay: Inhibition of ERBB2/Her2 (unknown origin) at 1 uM
[51] = biological target: Aurora kinase A (Homo sapiens) (UniProt O14965); assay: Inhibition of Aurora A (unknown origin) at 1 uM
[52] = biological target: Tyrosine-protein kinase ABL1 (Homo sapiens) (UniProt P00519); assay: Inhibition of ABL1 (unknown origin) at 1 uM
[53] = test system: MOLM-13; assay: Induction of apoptosis in human MOLM13 cells assessed as caspase 8 activation after 24 hrs; type: functional, cell-based
[54] = test system: THP-1; assay: Induction of apoptosis in human THP1 cells assessed as caspase 8 activation after 24 hrs; type: functional, cell-based
[55] = biological target: Platelet-derived growth factor receptor beta (Homo sapiens) (UniProt P09619); assay: Inhibition of PDGFRbeta (unknown origin) at 1 uM
[56] = test system: A549; assay: Induction of apoptosis in human A549 cells assessed as caspase 8 activation after 24 hrs; type: functional, cell-based
[57] = biological target: Tyrosine-protein kinase JAK2 (Homo sapiens) (UniProt O60674); assay: Inhibition of JAK2 (unknown origin) at 1 uM
[58] = biological target: Serine/threonine-protein kinase Chk1 (Homo sapiens) (UniProt O14757); assay: Inhibition of CHK1 (unknown origin) at 1 uM
[59] = biological target: Receptor-type tyrosine-protein kinase FLT3 (Homo sapiens) (UniProt P36888); assay: Inhibition of Aurora B/FLT3 in human MOLM13 cells assessed as inhibition of HH3 phosphorylation after 4 hrs by Dot-blot analysis; type: cell-based; details: MOLM-13
[60] = biological target: Vascular endothelial growth factor receptor 2 (Homo sapiens) (UniProt P35968); assay: Inhibition of KDR/VEGFR2 (unknown origin) at 1 uM
[61] = test system: THP-1; assay: Induction of apoptosis in human THP1 cells assessed as caspase 3 activation after 24 hrs; type: functional, cell-based
[62] = biological target: Proto-oncogene tyrosine-protein kinase Src (Homo sapiens) (UniProt P12931); assay: Inhibition of c-Src (unknown origin) at 1 uM
[63] = test system: MOLM-13; assay: Antitumor activity against human MOLM13 cells xenografted in ip dosed BALB/c AnN.Cg-Foxnlnu/CrlNarl mouse assessed as reduction in tumor growth treated once daily for 16 days; type: functional, organism-based
[64] = biological target: RAC-alpha serine/threonine-protein kinase (Homo sapiens) (UniProt P31749); assay: Inhibition of AKT1 (unknown origin) at 1 uM

Sequence of Receptor-type tyrosine-protein kinase FLT3 (Homo sapiens) (P36888 whole entry): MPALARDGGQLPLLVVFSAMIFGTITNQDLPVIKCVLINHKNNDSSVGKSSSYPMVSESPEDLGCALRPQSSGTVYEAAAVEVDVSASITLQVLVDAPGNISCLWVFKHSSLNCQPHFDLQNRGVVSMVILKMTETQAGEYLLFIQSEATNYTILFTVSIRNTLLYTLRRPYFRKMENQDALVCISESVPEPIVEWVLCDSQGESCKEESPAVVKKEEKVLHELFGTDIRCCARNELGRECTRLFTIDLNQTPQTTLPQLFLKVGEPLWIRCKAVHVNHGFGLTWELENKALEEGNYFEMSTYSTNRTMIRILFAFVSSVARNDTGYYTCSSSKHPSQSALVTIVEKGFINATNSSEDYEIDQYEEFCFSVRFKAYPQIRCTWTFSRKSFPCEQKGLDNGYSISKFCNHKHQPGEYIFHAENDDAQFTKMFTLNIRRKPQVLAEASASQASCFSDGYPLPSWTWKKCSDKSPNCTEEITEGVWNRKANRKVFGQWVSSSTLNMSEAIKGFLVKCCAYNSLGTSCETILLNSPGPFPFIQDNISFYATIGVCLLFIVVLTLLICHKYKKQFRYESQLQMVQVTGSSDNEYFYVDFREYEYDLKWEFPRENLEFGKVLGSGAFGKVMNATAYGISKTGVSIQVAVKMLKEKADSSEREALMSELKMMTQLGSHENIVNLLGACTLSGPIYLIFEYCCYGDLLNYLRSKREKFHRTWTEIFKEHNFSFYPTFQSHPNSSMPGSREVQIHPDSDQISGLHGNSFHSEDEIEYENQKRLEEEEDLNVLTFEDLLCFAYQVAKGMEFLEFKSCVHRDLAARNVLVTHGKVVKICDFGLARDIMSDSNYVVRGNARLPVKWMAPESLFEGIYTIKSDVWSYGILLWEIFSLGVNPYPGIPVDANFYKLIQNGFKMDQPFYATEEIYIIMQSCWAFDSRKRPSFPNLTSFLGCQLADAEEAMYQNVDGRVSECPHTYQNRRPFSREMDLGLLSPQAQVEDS
Sequence of Voltage-gated inwardly rectifying potassium channel KCNH2 (Q12809 whole entry): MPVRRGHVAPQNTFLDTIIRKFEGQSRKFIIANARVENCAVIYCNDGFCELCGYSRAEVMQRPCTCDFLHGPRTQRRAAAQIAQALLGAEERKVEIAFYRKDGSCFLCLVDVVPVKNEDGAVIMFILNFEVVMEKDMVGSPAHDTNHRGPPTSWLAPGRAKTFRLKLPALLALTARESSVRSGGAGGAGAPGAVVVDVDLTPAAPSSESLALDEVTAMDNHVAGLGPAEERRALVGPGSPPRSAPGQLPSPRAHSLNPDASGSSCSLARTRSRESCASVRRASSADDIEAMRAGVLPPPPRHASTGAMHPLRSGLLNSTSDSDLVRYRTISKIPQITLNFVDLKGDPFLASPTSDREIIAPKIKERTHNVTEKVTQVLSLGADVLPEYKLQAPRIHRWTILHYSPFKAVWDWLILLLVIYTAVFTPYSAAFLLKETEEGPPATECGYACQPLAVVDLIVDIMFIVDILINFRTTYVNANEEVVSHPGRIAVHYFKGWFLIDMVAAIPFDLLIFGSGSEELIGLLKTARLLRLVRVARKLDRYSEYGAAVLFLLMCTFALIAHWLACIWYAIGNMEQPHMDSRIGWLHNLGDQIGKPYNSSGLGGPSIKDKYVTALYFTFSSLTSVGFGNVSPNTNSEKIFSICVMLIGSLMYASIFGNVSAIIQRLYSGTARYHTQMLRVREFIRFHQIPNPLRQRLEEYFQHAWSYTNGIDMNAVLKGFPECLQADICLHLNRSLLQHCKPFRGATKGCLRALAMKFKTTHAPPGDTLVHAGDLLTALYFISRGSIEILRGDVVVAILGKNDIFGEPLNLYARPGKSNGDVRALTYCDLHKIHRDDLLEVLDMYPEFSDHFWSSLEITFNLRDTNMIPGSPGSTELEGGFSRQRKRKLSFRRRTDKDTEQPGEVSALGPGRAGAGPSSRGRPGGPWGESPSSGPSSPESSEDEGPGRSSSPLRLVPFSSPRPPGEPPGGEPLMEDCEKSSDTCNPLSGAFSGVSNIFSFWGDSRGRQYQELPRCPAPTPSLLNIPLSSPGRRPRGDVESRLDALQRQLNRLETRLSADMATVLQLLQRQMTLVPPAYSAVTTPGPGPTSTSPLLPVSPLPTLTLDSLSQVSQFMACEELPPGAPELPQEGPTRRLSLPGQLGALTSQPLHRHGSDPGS
Sequence of Rho-associated protein kinase 1 (Homo sapiens) (Q13464 2-1354 limits assumed): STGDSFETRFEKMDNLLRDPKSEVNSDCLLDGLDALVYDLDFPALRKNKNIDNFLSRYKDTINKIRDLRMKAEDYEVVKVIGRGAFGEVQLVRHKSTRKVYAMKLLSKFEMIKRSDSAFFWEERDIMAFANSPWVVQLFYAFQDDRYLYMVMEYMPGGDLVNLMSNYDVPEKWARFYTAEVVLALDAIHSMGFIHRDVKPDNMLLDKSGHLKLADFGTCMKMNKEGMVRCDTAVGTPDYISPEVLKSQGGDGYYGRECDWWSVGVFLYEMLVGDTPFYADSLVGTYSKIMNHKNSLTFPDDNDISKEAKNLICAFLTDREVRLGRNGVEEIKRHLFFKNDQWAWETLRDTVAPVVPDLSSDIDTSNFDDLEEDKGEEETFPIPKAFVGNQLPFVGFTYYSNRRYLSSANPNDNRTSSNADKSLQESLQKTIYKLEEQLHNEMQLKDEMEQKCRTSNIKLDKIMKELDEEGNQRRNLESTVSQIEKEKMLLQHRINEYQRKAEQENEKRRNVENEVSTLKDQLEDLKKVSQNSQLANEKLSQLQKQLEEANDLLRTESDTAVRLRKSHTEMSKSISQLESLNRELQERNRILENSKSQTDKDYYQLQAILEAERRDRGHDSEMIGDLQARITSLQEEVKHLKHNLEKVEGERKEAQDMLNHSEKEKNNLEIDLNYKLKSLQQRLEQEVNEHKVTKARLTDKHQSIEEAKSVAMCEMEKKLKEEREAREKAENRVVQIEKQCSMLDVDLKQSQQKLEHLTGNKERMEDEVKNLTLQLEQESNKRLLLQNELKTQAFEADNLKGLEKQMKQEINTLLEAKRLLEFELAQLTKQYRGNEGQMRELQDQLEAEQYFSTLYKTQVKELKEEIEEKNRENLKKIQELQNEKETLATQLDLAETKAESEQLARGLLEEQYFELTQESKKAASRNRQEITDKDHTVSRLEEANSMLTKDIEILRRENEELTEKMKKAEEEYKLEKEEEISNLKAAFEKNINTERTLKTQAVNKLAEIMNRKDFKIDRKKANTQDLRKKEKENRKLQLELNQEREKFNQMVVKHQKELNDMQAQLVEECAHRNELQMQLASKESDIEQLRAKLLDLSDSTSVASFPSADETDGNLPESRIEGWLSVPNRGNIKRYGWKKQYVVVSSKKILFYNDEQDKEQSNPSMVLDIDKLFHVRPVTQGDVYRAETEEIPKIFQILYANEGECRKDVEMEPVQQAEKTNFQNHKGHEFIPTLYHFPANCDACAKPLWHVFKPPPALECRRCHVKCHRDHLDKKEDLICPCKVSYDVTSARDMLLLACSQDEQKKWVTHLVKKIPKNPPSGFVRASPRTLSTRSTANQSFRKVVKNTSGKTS
Sequence of Dual specificity mitogen-activated protein kinase kinase 1 (Homo sapiens) (Q02750 whole entry): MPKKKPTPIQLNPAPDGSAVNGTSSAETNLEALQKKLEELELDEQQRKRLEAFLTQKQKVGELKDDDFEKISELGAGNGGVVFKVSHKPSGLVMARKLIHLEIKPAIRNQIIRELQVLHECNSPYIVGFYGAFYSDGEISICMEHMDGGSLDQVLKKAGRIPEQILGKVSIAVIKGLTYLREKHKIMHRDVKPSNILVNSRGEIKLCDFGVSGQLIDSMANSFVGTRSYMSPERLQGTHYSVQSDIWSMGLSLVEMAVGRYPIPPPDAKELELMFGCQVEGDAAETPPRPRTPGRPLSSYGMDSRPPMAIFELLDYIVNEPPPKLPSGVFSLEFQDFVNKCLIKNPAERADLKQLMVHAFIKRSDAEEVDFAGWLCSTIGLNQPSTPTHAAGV
Sequence of Aurora kinase C (Homo sapiens) (Q9UQB9 whole entry): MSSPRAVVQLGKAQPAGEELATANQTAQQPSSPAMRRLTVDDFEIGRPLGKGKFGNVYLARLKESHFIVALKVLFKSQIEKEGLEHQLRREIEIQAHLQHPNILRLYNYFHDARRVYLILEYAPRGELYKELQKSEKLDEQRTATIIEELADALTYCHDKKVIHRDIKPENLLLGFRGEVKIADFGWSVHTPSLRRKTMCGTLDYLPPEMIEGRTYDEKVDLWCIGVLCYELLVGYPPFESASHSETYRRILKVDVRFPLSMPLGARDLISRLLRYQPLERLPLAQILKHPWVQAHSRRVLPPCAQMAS
Sequence of Fibroblast growth factor receptor 1 (Homo sapiens) (P11362 22-822 limits assumed): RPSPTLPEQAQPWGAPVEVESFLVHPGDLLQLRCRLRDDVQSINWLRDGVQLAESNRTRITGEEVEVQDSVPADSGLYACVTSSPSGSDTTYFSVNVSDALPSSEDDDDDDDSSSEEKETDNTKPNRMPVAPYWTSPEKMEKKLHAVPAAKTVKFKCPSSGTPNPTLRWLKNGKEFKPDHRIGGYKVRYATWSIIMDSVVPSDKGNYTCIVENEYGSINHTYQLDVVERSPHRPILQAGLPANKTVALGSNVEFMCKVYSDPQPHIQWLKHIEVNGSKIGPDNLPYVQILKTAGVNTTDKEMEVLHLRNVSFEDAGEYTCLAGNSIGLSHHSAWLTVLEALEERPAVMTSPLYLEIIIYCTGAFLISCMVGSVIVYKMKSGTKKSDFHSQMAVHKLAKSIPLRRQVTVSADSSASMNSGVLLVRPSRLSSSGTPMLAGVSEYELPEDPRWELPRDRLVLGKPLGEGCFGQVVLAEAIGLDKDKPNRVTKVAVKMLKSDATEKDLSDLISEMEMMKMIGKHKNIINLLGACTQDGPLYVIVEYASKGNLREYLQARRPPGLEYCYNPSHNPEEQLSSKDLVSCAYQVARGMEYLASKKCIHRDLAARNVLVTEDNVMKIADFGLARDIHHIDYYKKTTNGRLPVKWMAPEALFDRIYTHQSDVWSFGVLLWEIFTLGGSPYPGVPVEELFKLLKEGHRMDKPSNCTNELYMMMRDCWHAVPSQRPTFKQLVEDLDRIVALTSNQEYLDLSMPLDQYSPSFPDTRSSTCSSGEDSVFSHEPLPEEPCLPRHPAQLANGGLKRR

Structure (SMILES): COc1ccc(C(=O)NC(=O)Nc2ccc3c(c2)NC(=O)/C3=C\c2[nH]c(C)c(C(=O)NCCN3CCCC3)c2C)c(F)c1 [listing 1 of 2 here]
- Cmax [1]: 654 ng/mL
- half-life [2]: 27.6 h
- IC50 [3]: 0.7 nM
- inhibition in vivo at 10 mg/kg [4]: 95%
- LD50 at 384 h [5]: > 20 mg/kg
- selectivity ratio [6]: > 10
- IC50 [7]: 2.4 nM
- IC50 [8]: 9670 nM
- IC50 [9]: > 10000 nM
- AUC(0-t) at 24 h [10]: 252 ng·h/mL
- Vd [11]: 22.2 L/kg
- Papp [12]: 1.78 ×10⁻⁶ cm/s
- Activity [13]: Non-toxic
- IC50 [14]: > 10000 nM
- Tmax [15]: 1.7 h
- inhibition in vivo at 10 mg/kg [16]: > 90%
- IC50 [17]: 2.3 nM
- AUC(0-t) at 24 h [18]: 1960 ng·h/mL
- Ratio [19]: 0.36
- IC50 [20]: > 10000 nM
- IC50 [21]: 2.8 nM
- Cmax [22]: 20.9 ng/mL
- Tmax [23]: 6 min
- clearance [24]: 8.33 mL/min/kg
- IC50 [25]: > 10000 nM
- half-life [26]: 8.6 h
- IC50 [27]: > 10000 nM
- bioavailability [28]: 2.6%
- IC50 [29]: 48.9 nM
- IC50 [30]: 14 nM
- Activity [31]: Non-toxic

Structure (SMILES): COc1ccc(C(=O)NC(=O)Nc2ccc3c(c2)NC(=O)/C3=C\c2[nH]c(C)c(C(=O)NCCN3CCCC3)c2C)c(F)c1 [listing 2 of 2 here]
- inhibition [32]: inactive
- inhibition [33]: 55%
- inhibition [34]: 32%
- inhibition [35]: inactive
- inhibition [36]: Dose-dependent effect
- inhibition [37]: 10%
- inhibition [38]: 13%
- Activity [39]: Active
- inhibition [40]: 40%
- inhibition [41]: 57%
- inhibition [42]: 23%
- inhibition [43]: 97%
- Activity [44]: Dose-dependent effect
- inhibition [45]: inactive
- inhibition [46]: 62%
- inhibition [47]: 32%
- inhibition [48]: 20%
- inhibition [49]: 38%
- inhibition [50]: 2%
- inhibition [51]: 21%
- inhibition [52]: 65%
- Activity [53]: Dose-dependent effect
- Activity [54]: Dose-dependent effect
- inhibition [55]: 74%
- Activity [56]: Dose-dependent effect
- inhibition [57]: inactive
- inhibition [58]: 18%
- inhibition [59]: Dose-dependent effect
- inhibition [60]: 20%
- Activity [61]: Dose-dependent effect
- inhibition [62]: 20%
- inhibition [63]: Dose-dependent effect
- inhibition [64]: 40%
